We go through 19 compounds from patent US20260345555A1, “Compositions and Methods for Protecting Salivary Glands from Off-Target Radiation Damage” (University of Rochester, priority 2022, published 2026).

For series [1] the following is noted: in vivo; cited from earlier work.
Series [2] concerns senescence-associated β-galactosidase in salivary gland cell clusters (SGm). The experiment in a line: Cellular senescence assay (SPiDER-βGal) in salivary gland tissue chip, 5 days post-radiation (15 Gy); also second screen of library hits at 100 μM. For Senescence (radioprotection): key: +: radioprotection; ~: partial radioprotection; —: no radioprotection. To be noted: for Senescence normalized mean intensity: second screen of library hits at 100 μM, 5 days post-radiation, only drugs nonsignificant compared to 0 Gy in the glutathione assay. The format is cell-based, mouse. The source says: The chip platform consists of an array of near-spherical microbubble (MB) cavities formed in poly(dimethylsiloxane) (PDMS). Each chip, containing ~50 MBs, affixed within wells of a 96-well plate (FIG. 1C). Primary salivary gland cell clusters (FIG. 1A), suspended in a poly(ethylene glycol) (PEG) hydrogel precursor and MMP-degradable peptide crosslinker solution together with the photoinitiator LAP, were applied to the chip allowing the clusters to deposit into the MBs (FIG. 1D). In situ polymerization of the hydrogel was achieved using long-wave, low intensity UV light. Over time, the cell clusters aggregate and proliferate to form SGm (FIG. 1C).
For senescence, a protocol similar to the glutathione assay was followed to determine the optimal time point post-radiation for detecting a change in senescence between 0 Gy and 15 Gy, as measured by senescence-associated β-galactosidase activity.
The glutathione and senescence assays were used to screen a library of FDA-approved drugs (Selleck Chemicals) at 100 μM. Drugs were first screened using the glutathione assay according to the timeline depicted in FIG. 2A. […] Hits with the glutathione assay were then tested with the senescence assay and considered a “double hit” if senescence levels were statistically similar to levels at 0 Gy (FIG. 4, black circles).
Mice were euthanized and the submandibular glands (SMG) were removed and chopped with a razor blade for 5 min. […] Cells were centrifuged, then resuspended in HBSS with 15 mM HEPES and passed through 100 μm and 20 μm mesh filters to isolate clusters between 20-100 μm. […] The isolated clusters were combined with hydrogel precursor solution and seeded in MB array-based chips as described below.
The cell/gel precursor solution (25 μL for 48 well; 20 μL for 96 well) was pipetted onto the MB chips and incubated for 30 min, pipetting every 10 min to redisperse cells that had settled onto the surface of the chip.
A cellular senescence assay for the chips was developed by adapting the Cellular Senescence Detection Kit—SPiDER-βGal (Dojindo Molecular Technologies, Inc. SG04). Bafilomycin A1 and SPiDER-βGal stock solutions were prepared in DMSO per manufacturer directions. The assay was performed by first incubating the chips with bafilomycin A1 (1:1000 dilution in media) for 1 hr at 37 °C. […] Chips were washed twice with media and imaged using a fluorescence microscope with a Texas Red filter (Excitation: 580 nm; Emission: 604 nm).
For radioprotection experiments, SGm were cultured in MB-hydrogel chips for 4 days, then drugs were added to the chips 30 min prior to irradiation and washed out with media 30 min post-radiation treatment. […] The glutathione and senescence assays were performed at 4- and 5-days post-radiation. For assay validation experiments, at least 3 chips (N=3) were used for each drug, corresponding to >100 MBs (n>100); these values are listed in the figure description for each experiment. Mean, standard deviation, and statistics were calculated based on the number of MBs (n).
For screening of the Selleck Chemicals compound library, the same treatment scheme was used, with drugs administered at 100 μM. One MB chip (N=1) was used per compound, with ~40-50 MBs per chip […]; statistics were calculated using the number of MBs (n) and compared to 0 Gy controls.
For both the glutathione and cellular senescence assays, images were quantified in ImageJ.

For series [3] the following is noted: literature; cited from earlier work.
For series [4], the system named is Reduced glutathione in salivary gland cell clusters (SGm). The experiment in a line: Glutathione assay in salivary gland tissue chip, 4 days post-radiation (15 Gy); also first screen of Selleck library at 100 μM. For Glutathione (radioprotection): key: +: radioprotection; ~: partial radioprotection; —: no radioprotection. To be noted: for Glutathione normalized mean intensity: first screen of Selleck library at 100 μM; for protection against glutathione level changes resulting from radiation: 50 μM; for hit in the drug screen: glutathione assay first screen, 100 μM. Type of series: cell-based, mouse. An outline of the steps: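 Mouse submandibular gland cell clusters (20–100 μm) in PEG hydrogel on microbubble chips, cultured 4 days to form SGm, then dosed 30 min before and during 15 Gy irradiation and washed out 30 min after. Glutathione measured 4 days post-radiation; library compounds screened at 100 μM, hits matching 0 Gy levels.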

The conditions of series [5]: reason for exclusion from further testing; cited from earlier work.
The test system of series [6] is p53-dependent and independent apoptosis. To be noted: cited from earlier work.
For a further series, the system named is COX-1. To be noted: role: inhibitor; cited from earlier work.
For series [7], the system named is irradiated salivary glands. The note with it: literature; cited from earlier work.
The subject of a further series is salivary flow rate. To be noted: swine; cited from earlier work.
The conditions of series [8]: in vivo; cited from earlier work. The source holds these as a separate data set.
A further series concerns lymphocyte cells. To be noted: viability of lymphocytes as primary readout; cited from earlier work.
Setting [9] is: Mus musculus, light or radiation study, 120 h, read-out: reduction in senescence.

Where two headings read alike, the source gives them in different places.

With `CCCSc1ccc2nc(NC(=O)OC)[nH]c2c1` [Albendazole (Albenza)], the “bioavailability” value in [1] is “poor bioavailability”.

Consider `CC1=NN(c2ccccc2)C(=O)C1` [Edaravone, 3-methyl-1-phenyl-2-pyrazoline-5-one], for which the “Senescence (radioprotection)” value in series [2] (100 μM), in series [2] (1 mM) and in series [2] (4 mM) was “+” in each case. In series [2] (100 μM), the “protection against radiation-induced senescence” value was “protective”. The inhibition at 100 µM in series [2] (Mus musculus, light or radiation study, 120 h, 100 μM, versus untreated, irradiated controls, read-out: reduction in senescence) came out at 96%. Also, the inhibition at 1000 µM in series [2] (Mus musculus, light or radiation study, 120 h, 1 mM, versus untreated, irradiated controls, read-out: reduction in senescence) turned out to be 94%. The inhibition at 4000 µM in series [2] (Mus musculus, light or radiation study, 120 h, 4 mM, versus untreated, irradiated controls, read-out: reduction in senescence) is 113%. Besides, in [3], the radio-protective dose range is 100 to 1000 µM. Further, the “radioprotection using the glutathione assay” value in [4] (0.1 mM) was “partial radioprotection”. Moreover, the glutathione levels maintained in [4] (0.1 mM, 15 Gy) is on record as ~ 43%. Further, in series [4] (1 mM), the “Glutathione (radioprotection)” value is “+”. Also, the “prevention of radiation-induced reduction of glutathione levels” value was “showed protection” in series [4] (1 mM, 15 Gy, 4 days post-radiation) and “not at 4 mM” in series [4] (4 mM, 15 Gy, 4 days post-radiation).

As to `COC(=O)[C@@H]1CC2=CC(=O)CC[C@]2(C)[C@@]23O[C@@H]2C[C@@]2(C)[C@@H](CC[C@@]24CCC(=O)O4)[C@H]13` [Eplerenone], the “solubility” value in [5] is reported as “concerns with solubility”.

`CC(O)(P(=O)(O)O)P(=O)(O)O` [Etidronate (Didronel)]: in series [2] (15 Gy), the “Senescence normalized mean intensity” value stood at 0.992. The “bioavailability” value in [1] is recorded as “poor bioavailability”. Moreover, the “Glutathione normalized mean intensity” value in series [4] (15 Gy, 4 days post-radiation) stood at 0.9486.

For `O=C(O)c1ccc(/C=C/S(=O)(=O)Cc2ccc(Cl)cc2)cc1` [Ex-Rad], in series [2] (50 μM, 15 Gy), the “radioprotection (senescence)” value worked out at 45%. In series [4] (15 Gy), the “protection against glutathione level changes resulting from radiation” value was “no effect observed”. Besides, the “apoptosis” value in series [6] was “reduce p53-dependent and independent apoptosis”.

In the case of `COc1ccc(Cl)cc1C(=O)NCCc1ccc(S(=O)(=O)NC(=O)NC2CCCCC2)cc1` [Glyburide], in series [3], the “radioprotection” value is “radioprotectors”.

As for `COc1ccc2c(c1)c(CC(=O)O)c(C)n2C(=O)c1ccc(Cl)cc1` [Indomethacin], the “COX-1 inhibition” value in the series with COX-1 was “only blocks COX-1”. Besides, in [7], the “mitigation of salivary gland damage” value is reported as “mitigation of salivary gland damage”. The “radioprotection in drug screen” value in series [4] (100 μM library screen) is “showed radioprotection”; in [4] (concentrations lower than 100 μM), “ineffective”.

As for `O=C(Nc1cccc2c(=O)cc(-c3nnn[nH]3)oc12)c1ccc(OCCCCc2ccccc2)cc1` [Pranlukast], in series [2] (15 Gy), the “Senescence normalized mean intensity” value came to 1.394. Besides, the “Glutathione normalized mean intensity” value in series [4] (15 Gy, 4 days post-radiation) is given as 0.9284.

In the case of `CO[C@H]1C[C@@H]2CC[C@@H](C)[C@@](O)(O2)C(=O)C(=O)N2CCCC[C@H]2C(=O)O[C@H]([C@H](C)C[C@@H]2CC[C@@H](O)[C@H](OC)C2)CC(=O)[C@H](C)/C=C(\C)[C@@H](O)[C@@H](OC)C(=O)[C@H](C)C[C@H](C)/C=C/C=C/C=C/1C` [Rapamycin], the “Senescence (radioprotection)” value in [2] (50 μM) was “+”. Also, the “protection against radiation-induced senescence” value in series [2] (50 μM, 15 Gy) is “complete protection”. Further, the “protection against glutathione level changes resulting from radiation” value in [4] (15 Gy) is on record as 58%. The “salivary flow rate post-radiation” value in the series on salivary flow rate is recorded as “restore salivary flow rate post-radiation”.

Turning to `CC1(C)CC(O)CC(C)(C)N1[O]` [Tempol, 4-hydroxy-TEMPO], the “Senescence (radioprotection)” value in series [2] was “+”. Also, in series [2] (setting [9]), the inhibition at 1000 µM is 75% and the inhibition at 4000 µM worked out at 91%. In series [4], the “Glutathione (radioprotection)” value is “+” and the “prevention of radiation-induced reduction of glutathione levels” value is “strong radioprotection”.

`C[C@]12C=CC(=O)C=C1CC[C@H]1[C@@H]3C[C@@H](O)[C@](O)(C(=O)CO)[C@@]3(C)C[C@H](O)[C@@]12F` [Triamcinolone (Aristocort)]: the “Senescence normalized mean intensity” value in series [2] (15 Gy) amounted to 0.9883. Moreover, the “Glutathione normalized mean intensity” value in series [4] (15 Gy, 4 days post-radiation) is on record as 1.061.

In the case of `NCCCNCCSP(=O)(O)O` [amifostine], in series [8], the “adverse effects” value was “severe side effects, including nausea, vomiting, and hypotension”.

`COc1c(N2CCNC(C)C2)c(F)cc2c(=O)c(C(=O)O)cn(C3CC3)c12` (stereo not shown) [gatifloxacin]: in the series on lymphocyte cells, the “radioprotection of lymphocytes” value is “radioprotectors”. Moreover, the “hit in the drug screen” value in [4] is reported as “not hits”.

Turning to `Cc1ccc(S(=O)(=O)NC(=O)NN2CC3CCCC3C2)cc1` (stereo not shown) [gliclazide], in series [3], the “antioxidant activity” value is “antioxidant activity” and the “radioprotection” value was “radioprotectors”.

On to `C[C@H]1COc2c(N3CCN(C)CC3)c(F)cc3c(=O)c(C(=O)O)cn1c23` [levofloxacin], for which the “radioprotection of lymphocytes” value in the series on lymphocyte cells is reported as “radioprotectors”. Further, the “hit in the drug screen” value in series [4] is “not hits”.

For `COc1c(N2C[C@@H]3CCCN[C@@H]3C2)c(F)cc2c(=O)c(C(=O)O)cn(C3CC3)c12` [moxifloxacin], the “radioprotection of lymphocytes” value in the series on lymphocyte cells is on record as “radioprotectors”.

On to `CCn1cc(C(=O)O)c(=O)c2cc(F)c(N3CCNCC3)cc21` [norfloxacin], for which, in the series on lymphocyte cells, the “radioprotection of lymphocytes” value is listed as “radioprotectors”. Besides, the “hit in the drug screen” value in series [4] was “not hits”.

Take `CC1COc2c(N3CCN(C)CC3)c(F)cc3c(=O)c(C(=O)O)cn1c23` (stereo not shown) [ofloxacin]: the “radioprotection of lymphocytes” value in the series on lymphocyte cells was “radioprotectors”. Besides, in series [4], the “hit in the drug screen” value is recorded as “not hits”.

On to Meropenem, for which the “radioprotection in dose response, senescence assay” value in [2] (dose response, 15 Gy) is “only partial protection”. In addition, the “double hit in the drug screen” value in series [2] (glutathione and senescence assays, 100 μM, statistically similar to 0 Gy) is on record as “double hits”. The “concentration range of radioprotection, glutathione assay” value in series [4] (dose response, 15 Gy) was 0.1 to 100 µM. In series [4] (nonlinear fit in Prism of dose response curves, 15 Gy), the “Estimated EC50, Glutathione” value was 100 nM.
